Measurements taken from patent US20240043418A1, “1,3-DIHYDRO-2H-PYRROLO[3,4-C]PYRIDINE DERIVATIVES AS GABAA A5 RECEPTOR MODULATORS” (Richter Gedeon Nyrt., priority 2020, published 2024).

Key:
[1] = molecular target: T1, human recombinant GABAA α5β3γ2 receptor (Homo sapiens (Human), UniProt P18507+P31644); test: Receptor binding assay, [3H]Ro151788 displacement on membranes of HEK cells; conditions: [3H]Ro151788 0.5 nM, HEK cell membranes, 60 minutes at 4° C.; read-out: hGABAA α5 Ki
Protocol: The GABAA α5β3γ2 protein used for the receptor binding assay was derived from membranes produced from HEK cells (Millipore CYL3073) expressing the human recombinant GABAA α5β3γ2 receptor. Cells were stored and cultured in-house according to the instructions provided by the vendor (Millipor). Cell pellet was homogenized in 10 times modified Krebs Henseleit buffer (membrane preparation buffer): 20 mM Tris, 120 mM NaCl, 100 mM KCl, 25 mM CaCl2 and 25 mM MgCl2 pH=7.4 at 4° C. using Ultra Turrax (Janke&Kunkel) maximal speed for 15 seconds. The homogenate was centrifuged at 40,000 g for 30 minutes at 4° C. Supernatant was discarded and the resulting pellet was washed in membrane preparation buffer. Pellet was resuspended in membrane preparation buffer and aliquots of 1.4 mL ampulles were stored at −70° C. until use.
Receptor binding assays were performed in 96-well format in deep-well plates. For each 96-well plate one ampulle of membrane homogenate was thawed and diluted in binding buffer (50 mM Tris pH=7.4, 100 mM KCl) and 200 μL was dispensed into each well. Radioligand [^3H]Rol51788 (Perkin Elmer: NET757250UC) was prepared in binding buffer and added to each well in 50 μL volume to give final concentration of 0.5 nM. Test compounds in suitable concentration(s) were added in additional 50 μL. The final assay volume was 300 μL. Incubation was carried out for 60 minutes at 4° C. For non-specific binding 10 μM unlabeled diazepam was used. […] The plate was read in Microbeta (Perkin Elmer).
The specific radioligand binding (SB) was defined as the difference between total binding (Tot) and the non-specific binding (NSB). Results are expressed as a percent inhibition of specific binding obtained in the presence of compound of interest.
For IC50 and Ki determination a minimum of six drug concentrations in triplicate were used. […] Ki values (i.e. inhibition constants) were calculated using the Cheng-Prusoff equation Ki=IC50/[1+(L/KD)], where [L] is the radioligand concentration and KD the affinity of the labelled ligand for receptor. KD was determined from the Saturation analyses.

[2] = molecular target: human recombinant GABAA α1β3γ2 receptor (Homo sapiens (Human), UniProt P14867+P18507); test: Functional assay, QPatch automated patch clamp, modulation of GABA-evoked current; type: cell-based; conditions: tested at 10 μM; GABA 1 μM; HEK293 cells; percentage modulation of peak current
Protocol: (§1) Human HEK293 cell lines expressing GABAA α1β3γ2 and GABAA α5β3γ2 receptors were used in functional assays using the QPatch automated patch clamp system.
(§2) HEK293 cell lines stably expressing human recombinant GABAA α1β3γ2 receptor subunits (Millipore, CYL3073) or human recombinant GABAA α5β3γ2 receptor subunits (Millipore, CYL3053) were cultured in DMEM supplemented with 10% FBS (Gibco), passed two times per week and plated on Petri dishes previously coated with poly-d-lysine.
(§3) Automated whole-cell patch clamp recordings were made from cells 2-4 days after plating. Cells were detached using trypsin/EDTA (Sigma) treatment (2 minutes in 0.25% trypsin at 37° C.), then, after centrifugation (125G, 3 min, 2×), resuspended in a serum-free based media (Gibco, CHO-S-SFM-II) containing 12.5 mM HEPES, 1×penicillin-streptomycin-amphotericin (SigmaMix) and soybean trypsin inhibitor (Sigma, 0.04 mg/ml).
(§4) Cell suspension, as well as the extracellular solution (130 mM NaCl, 5 mM KCl, 5.1 mM HEPES, 4.9 mM HEPES-Na, 10 mM CaCl2), 2 mM MgCl2, 10 mM glucose and 0.1% DMSO, pH=7.35-7.4) and the intracellular solution (80 mM KCl, 50 mM KF, 36 mM KOH, 10 mM EGTA, 10 mM HEPES, 1.75 mM MgCl2, 0.5 mM CaCl2), 4 mM Na2ATP. 14 mM phosphocreatine, 50 U/ml creatine-phosphokinase, 0.3 mM GTP, pH=7.25-7.3) were added to the QPatch-HTX automated patch clamp system (Sophion) in single-cell mode at room temperature. Inward currents were evoked at a holding potential of −80 mV by 3-s-long applications of the control agonist GABA at sub-maximal effective concentration (1 μM) at 2-4-min intervals first in concentration-matched DMSO (0.1 or 0.3%) control solution for five times, then in the presence of the test compound for four times, finally in control solution again for three times (wash-out). At the end of the experiment 100 μM GABA was applied to saturate the GABA-response and to assess the efficacy of the control GABA application. Current signals were low-pass filtered at 100 Hz and recorded at a sampling rate of 1 kHz.
(§5) The percentage modulation was calculated from the comparison of GAB A-evoked peak current amplitudes in the presence and absence of the test compound.

[3] = molecular target: T1, human recombinant GABAA α5β3γ2 receptor; test: as above; type: cell-based; conditions: tested at 10 μM; GABA 1 μM; HEK293 cells; percentage modulation of peak current
Protocol: as §1, §2, §3, §4, §5

human recombinant GABAA α1β3γ2 receptor, sequence (P14867 28-456): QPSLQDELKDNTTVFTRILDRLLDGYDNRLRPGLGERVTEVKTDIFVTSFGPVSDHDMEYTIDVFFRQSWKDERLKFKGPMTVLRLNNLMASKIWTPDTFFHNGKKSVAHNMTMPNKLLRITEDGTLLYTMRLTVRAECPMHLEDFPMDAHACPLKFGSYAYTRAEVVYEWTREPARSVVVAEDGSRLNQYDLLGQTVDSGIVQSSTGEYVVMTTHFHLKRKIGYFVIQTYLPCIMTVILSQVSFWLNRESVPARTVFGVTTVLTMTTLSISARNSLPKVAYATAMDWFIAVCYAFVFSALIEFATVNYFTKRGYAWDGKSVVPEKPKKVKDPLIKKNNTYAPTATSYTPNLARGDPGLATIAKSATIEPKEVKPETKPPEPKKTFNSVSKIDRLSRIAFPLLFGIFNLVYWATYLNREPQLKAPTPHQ
human recombinant GABAA α1β3γ2 receptor, sequence (P18507 40-475): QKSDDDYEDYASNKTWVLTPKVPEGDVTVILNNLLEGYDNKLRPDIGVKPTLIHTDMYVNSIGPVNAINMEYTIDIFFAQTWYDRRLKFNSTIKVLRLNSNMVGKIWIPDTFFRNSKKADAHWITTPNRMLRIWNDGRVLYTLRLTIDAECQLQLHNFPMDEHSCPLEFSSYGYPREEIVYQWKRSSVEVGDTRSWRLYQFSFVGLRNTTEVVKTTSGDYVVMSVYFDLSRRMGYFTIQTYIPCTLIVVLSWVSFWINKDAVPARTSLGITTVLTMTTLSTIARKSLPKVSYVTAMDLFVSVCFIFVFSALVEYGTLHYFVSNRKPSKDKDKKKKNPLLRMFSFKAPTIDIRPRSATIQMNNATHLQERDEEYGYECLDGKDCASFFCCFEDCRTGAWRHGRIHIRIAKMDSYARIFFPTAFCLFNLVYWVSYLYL
human recombinant GABAA α1β3γ2 receptor, sequence (P28472 26-473 partner): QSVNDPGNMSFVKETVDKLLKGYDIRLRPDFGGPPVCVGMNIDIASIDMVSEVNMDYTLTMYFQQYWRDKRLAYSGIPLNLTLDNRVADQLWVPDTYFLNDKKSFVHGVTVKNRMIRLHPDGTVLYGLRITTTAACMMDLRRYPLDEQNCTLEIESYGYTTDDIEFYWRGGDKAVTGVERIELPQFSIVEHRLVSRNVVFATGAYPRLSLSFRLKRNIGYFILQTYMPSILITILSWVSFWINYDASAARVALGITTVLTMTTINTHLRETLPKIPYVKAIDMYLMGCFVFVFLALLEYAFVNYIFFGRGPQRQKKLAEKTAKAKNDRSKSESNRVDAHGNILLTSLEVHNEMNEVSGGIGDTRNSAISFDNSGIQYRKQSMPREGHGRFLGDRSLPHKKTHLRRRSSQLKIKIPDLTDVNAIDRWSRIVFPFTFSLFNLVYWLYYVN
T1 sequence (P31644 32-462): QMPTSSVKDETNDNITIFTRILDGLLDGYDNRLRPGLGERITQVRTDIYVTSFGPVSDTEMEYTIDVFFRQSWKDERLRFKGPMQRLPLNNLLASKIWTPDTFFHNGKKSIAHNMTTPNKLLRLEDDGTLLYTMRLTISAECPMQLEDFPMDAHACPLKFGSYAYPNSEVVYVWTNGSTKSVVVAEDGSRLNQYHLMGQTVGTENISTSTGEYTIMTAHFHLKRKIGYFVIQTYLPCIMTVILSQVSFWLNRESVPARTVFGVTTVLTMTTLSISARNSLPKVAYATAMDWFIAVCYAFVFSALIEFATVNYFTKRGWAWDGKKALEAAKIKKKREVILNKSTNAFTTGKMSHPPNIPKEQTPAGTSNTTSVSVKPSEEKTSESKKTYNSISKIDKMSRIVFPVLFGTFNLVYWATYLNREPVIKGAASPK
T1 sequence (P18507 40-475): as the sequence (P18507 40-475) above
T1 sequence (P28472 26-473 partner): as the sequence (P28472 26-473 partner) above

Row | Compound | Ki [1] [nM] | hGABAA α1 efficacy [2] [%] | hGABAA α5 efficacy [3] [%]
1 | CC(=O)N1Cc2cnc(OCc3c(C)nnn3-c3ccc(F)cc3)cc2C1 [Example 1, 1-(6-{[1-(4-fluorophenyl)-4-methyl-1H-1,2,3-triazol-5-yl]methoxy}-1,3-dihydro-2H-pyrrolo[3,4-c]pyridin-2-yl)ethanone] | 10 | −2 | −43
2 | CC(=O)N1Cc2cnc(OCc3c(-c4ccc(F)cc4)nnn3C)cc2C1 [Example 2, 1-(6-{[4-(4-fluorophenyl)-1-methyl-1H-1,2,3-triazol-5-yl]methoxy}-1,3-dihydro-2H-pyrrolo[3,4-c]pyridin-2-yl)ethanone] | 32 | −6 | −47
3 | CC(=O)N1Cc2cnc(OCc3c(-c4ccc(F)cc4)noc3C)cc2C1 [Example 3, 1-(6-{[3-(4-fluorophenyl)-5-methyl-1,2-oxazol-4-yl]methoxy}-1,3-dihydro-2H-pyrrolo[3,4-c]pyridin-2-yl)ethanone] | 0.9 | 13 | −44
